Experiments:
Assay in all cases: relative viability (nuclei count vs DMSO), 5 days (fraction); higher = more cells survive
[1] = compound: C1CNCCC1C2=CC(=NN2)C3=CC=NC=C3 + N=C(N)NC(=N)NCCc1ccccc1 [Phenformin] (partner 250 µM)
Summary of the method: (§1)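 For relative viability, nuclei counts in treated wells were divided by those in vehicle wells. Lung cancer cell lines had been pin-tool dosed in 1536-well plates the day after seeding and cultured for 5 days, then fixed and stained in one step (final 0.05% Triton X-100, 1% formaldehyde, 1 ug/ml Hoechst) and imaged at 4×. Doses were one drug alone or a fixed anchor-drug dose plus five library-drug doses (not always all listed) in √10 steps, and values are duplicate-plate medians.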

[2] = compound: C[C@@H](N)c1ccc(C(=O)Nc2ccnc3[nH]ccc23)cc1 + CC(=O)Nc1cccc(-n2c(=O)n(C3CC3)c(=O)c3c(Nc4ccc(I)cc4F)n(C)c(=O)c(C)c32)c1 [Trametinib] (partner 0.02 µM)
Summary of the method: as §1

[3] = compound: C[C@@H](N)c1ccc(C(=O)Nc2ccnc3[nH]ccc23)cc1 + CCNC(=O)c1noc(-c2cc(C(C)C)c(O)cc2O)c1-c1ccc(CN2CCOCC2)cc1 [Luminespib] (partner 0.01 µM)
Summary of the method: as §1

[4] = compound: C1CNCCC1C2=CC(=NN2)C3=CC=NC=C3 + CC1(C)CCC(c2ccc(Cl)cc2)=C(CN2CCN(c3ccc(C(=O)NS(=O)(=O)c4ccc(N[C@H](CCN5CCOCC5)CSc5ccccc5)c(S(=O)(=O)C(F)(F)F)c4)cc3)CC2)C1 [Navitoclax] (partner 0.5 µM)
Summary of the method: as §1

Cell Line	relative viability ([1]; first compound 0.08 µM)	relative viability ([1]; first compound 0.8 µM)	relative viability ([1]; first compound 2.53 µM)	relative viability ([1]; first compound 8 µM)	relative viability ([2]; first compound 0.04 µM)	relative viability ([2]; first compound 0.1265 µM)	relative viability ([2]; first compound 0.4 µM)	relative viability ([2]; first compound 4 µM)	relative viability ([3]; first compound 0.04 µM)	relative viability ([3]; first compound 0.1265 µM)	relative viability ([3]; first compound 0.4 µM)	relative viability ([3]; first compound 1.265 µM)	relative viability ([3]; first compound 4 µM)	relative viability ([4]; first compound 0.08 µM)	relative viability ([4]; first compound 0.8 µM)	relative viability ([4]; first compound 2.53 µM)	relative viability ([4]; first compound 8 µM)	relative viability ([2]; first compound 1.265 µM)
NCI-H2023	0.357	0.411	0.498	0.423	0.607	0.619	0.657	0.586	1	0.881	0.832	0.689	0.543	0.909	1.05	1.06	0.979	
NCI-H838	0.605	0.546	0.577	0.563	0.261	0.512	0.45	0.192	0.355	0.315	0.32	0.282	0.222	1.13	1.11	1.25	1.14	0.289
NCI-H1734	0.348	0.421	0.36	0.401	0.735	0.698	0.708	0.582	0.2	0.209	0.193	0.187	0.195	0.703	1.01	0.88	0.852	0.668
NCI-H1650	0.287	0.442	0.428	0.356	0.579	0.786	0.648	0.609	0.2	0.191	0.177	0.17	0.195	1.11	1.37	1.12	1.22	0.554
NCI-H596	0.657	0.841	0.927	0.86	0.922	0.826	0.906	0.759	1.33	0.912	0.98		0.975	1.01	1.07	1.02	0.958	0.752
NCI-H1944	0.18	0.185	0.209	0.173	0.479	0.412	0.467	0.402	0.857	0.722	0.753	0.746	0.6	0.989	0.937	1.09	1	0.503
LK-2	0.354	0.377	0.547	0.494	1.03	0.733	0.694	0.933	0.202		0.218		0.238	0.674	1.25	0.843	0.87	0.939
HCC-15	0.401	0.54	0.494	0.469	0.456	0.365	0.422	0.362	0.391	0.329	0.291		0.153	0.756	0.785	0.706	0.662	0.384
NCI-H727	0.529	0.468	0.619	0.631	0.41	0.432	0.404	0.467	0.341	0.516	0.425	0.285	0.363	0.411	0.459	0.623	0.67	0.466

Source: the supplement of paper PMC10307832
